Consider 2 molecules from patent publication US6569865B2, “Spiro 1-azabicyclo[2.2.2]octane-3,2′(3′h)-furo[2,3-b]pyridine” (priority 2001, dated 2003).

One experiment addresses α7 nAChR (Rattus norvegicus, UniProt Q05941). The experiment can be described thus: Test A: 125I-α-bungarotoxin binding to rat hippocampal membranes (affinity at α7 nAChR subtype). On the procedure:
Test A—Assay for Affinity at α7 nAChR Subtype
125I-α-Bungarotoxin (BTX) binding to rat hippocampal membranes. Rat hippocampi were homogenized in 20 volumes of cold homogenization buffer (HB: concentrations of constituents (mM): tris(hydroxymethyl)aminomethane 50; MgCl2 1; NaCl 120; KCl 5: pH 7.4). The homogenate was centrifuged for 5 minutes at 1000 g, the supernatant was saved and the pellet re-extracted. The pooled supernatants were centrifuged for 20 minutes at 12000 g, washed, and resuspended in HB. Membranes (30-80 μg) were incubated with 5 nM [^125I]α-BTX, 1 mg/mL BSA (bovine serum albumin), test drug, and either 2 mM CaCl2 or 0.5 mM EGTA [ethylene glycol-bis(β-aminoethylether)] for 2 hours at 21° C., and then filtered and washed 4 times over Whatman glass fibre filters (thickness C) using a Brandel cell harvester. […]
IC50 values and pseudo Hill coefficients (nH) were calculated using the non-linear curve-fitting program ALLFIT (DeLean A, Munson P J and Rodbard D (1977) Am. J. Physiol., 235:E97-E102). […]
where a value of n=1 was used whenever nH<1.5 and a value of n=2 was used when nH≧1.5. […] Ki values were determined using 6 or more drug concentrations. […]

The target of another experiment is α4 nAChR (Rattus norvegicus, UniProt P09483+P12390). It is filed as binding. The procedure: Binding Data Analysis for Tests A and B
Sequence of α4 nAChR (P09483 31-630): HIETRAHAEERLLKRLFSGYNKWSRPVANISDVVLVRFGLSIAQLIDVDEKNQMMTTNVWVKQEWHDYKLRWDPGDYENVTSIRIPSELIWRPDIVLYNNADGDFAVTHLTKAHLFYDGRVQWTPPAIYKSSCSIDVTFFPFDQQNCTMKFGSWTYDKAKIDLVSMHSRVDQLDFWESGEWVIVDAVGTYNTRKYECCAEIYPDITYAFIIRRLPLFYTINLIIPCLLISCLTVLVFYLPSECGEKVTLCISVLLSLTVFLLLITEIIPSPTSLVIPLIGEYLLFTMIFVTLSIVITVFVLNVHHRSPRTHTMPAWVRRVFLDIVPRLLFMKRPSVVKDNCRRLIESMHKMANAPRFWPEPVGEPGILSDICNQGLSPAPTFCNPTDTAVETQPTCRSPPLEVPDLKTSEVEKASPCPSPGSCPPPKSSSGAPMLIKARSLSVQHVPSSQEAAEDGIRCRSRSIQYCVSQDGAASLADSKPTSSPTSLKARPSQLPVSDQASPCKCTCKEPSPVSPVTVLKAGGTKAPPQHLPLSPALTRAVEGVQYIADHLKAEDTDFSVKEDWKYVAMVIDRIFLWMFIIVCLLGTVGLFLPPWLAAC
Sequence of α4 nAChR (P12390 25-500): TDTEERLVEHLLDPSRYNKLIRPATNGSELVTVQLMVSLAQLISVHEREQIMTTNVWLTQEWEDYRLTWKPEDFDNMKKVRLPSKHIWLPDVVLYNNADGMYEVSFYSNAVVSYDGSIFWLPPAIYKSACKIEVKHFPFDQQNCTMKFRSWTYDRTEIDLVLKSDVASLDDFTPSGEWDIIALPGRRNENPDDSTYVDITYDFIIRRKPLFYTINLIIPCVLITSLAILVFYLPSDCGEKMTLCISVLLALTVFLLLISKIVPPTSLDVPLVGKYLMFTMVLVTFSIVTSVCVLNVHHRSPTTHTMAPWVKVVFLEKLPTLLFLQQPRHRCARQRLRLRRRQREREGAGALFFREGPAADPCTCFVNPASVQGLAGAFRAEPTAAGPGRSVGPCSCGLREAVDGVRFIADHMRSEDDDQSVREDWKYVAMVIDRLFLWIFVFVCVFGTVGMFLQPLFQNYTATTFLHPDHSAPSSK
Ki values were determined using 6 or more drug concentrations.

Sequence of α7 nAChR (Q05941 23-502): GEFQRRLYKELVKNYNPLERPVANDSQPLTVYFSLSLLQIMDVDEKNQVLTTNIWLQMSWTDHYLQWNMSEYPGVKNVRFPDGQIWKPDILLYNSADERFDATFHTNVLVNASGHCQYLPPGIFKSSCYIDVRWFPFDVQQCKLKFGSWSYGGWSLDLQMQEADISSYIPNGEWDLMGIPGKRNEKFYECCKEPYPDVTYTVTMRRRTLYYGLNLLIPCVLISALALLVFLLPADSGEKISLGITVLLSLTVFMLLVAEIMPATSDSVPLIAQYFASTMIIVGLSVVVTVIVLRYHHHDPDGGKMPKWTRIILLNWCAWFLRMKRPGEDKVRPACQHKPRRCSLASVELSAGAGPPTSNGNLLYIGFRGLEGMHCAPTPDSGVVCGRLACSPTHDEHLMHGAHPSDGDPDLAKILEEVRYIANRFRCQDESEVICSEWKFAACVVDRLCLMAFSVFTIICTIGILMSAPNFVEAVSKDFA

With “125I-α-Bungarotoxin [Compound 125I-α-BTX, reference compound]”, the Kd at α7 nAChR (read-out: KD of radioligand from saturation curves (one site model)) worked out at 1.67 nM.
For orientation: Ki means a measure of affinity in units of concentration, obtained from inhibition or displacement. Lower therefore signals tighter binding. For `c1cc(-c2cnc3c(c2)C[C@@]2(CN4CCC2CC4)O3)co1` [Compound 3, (2′R)-5′-(3-furanyl)spiro[1-azabicyclo[2.2.2]octane-3,2′(3′H)-furo[2,3-b]pyridine]], the “nAChR Binding Selectivity (Ratio α4 Ki/α7 Ki)” value at α4 nAChR is on record as 88000. The Ki at α7 nAChR (125I-α-BTX displacement, rat hippocampal membranes) turned out to be 0.033 nM.
